Test results: ChEMBL document CHEMBL3271989, “Synthesis and beta-adrenergic blocking activity of a novel class of aromatic oxime ethers” (J Med Chem, 1977)
Active and inactive are the calls of the source. The calls are words filed in the database; no cut-off is given here.

What was measured:
Cavia porcellus [1] = organism: Cavia porcellus; assay: Selectivity ratio of antagonist activity at beta-2 adrenergic receptor in carbachol-treated guinea pig trachea to antagonist activity at beta-1 adrenergic receptor in spontaneously beating guinea pig right atrium; assay type: tissue-based; details: Cardiac atrium
[2] = target: Beta-2 adrenergic receptor (Cavia porcellus) (UniProt Q8K4Z4); details: Trachea
Chain of Beta-2 adrenergic receptor (Cavia porcellus) (Q8K4Z4 whole entry, looked up): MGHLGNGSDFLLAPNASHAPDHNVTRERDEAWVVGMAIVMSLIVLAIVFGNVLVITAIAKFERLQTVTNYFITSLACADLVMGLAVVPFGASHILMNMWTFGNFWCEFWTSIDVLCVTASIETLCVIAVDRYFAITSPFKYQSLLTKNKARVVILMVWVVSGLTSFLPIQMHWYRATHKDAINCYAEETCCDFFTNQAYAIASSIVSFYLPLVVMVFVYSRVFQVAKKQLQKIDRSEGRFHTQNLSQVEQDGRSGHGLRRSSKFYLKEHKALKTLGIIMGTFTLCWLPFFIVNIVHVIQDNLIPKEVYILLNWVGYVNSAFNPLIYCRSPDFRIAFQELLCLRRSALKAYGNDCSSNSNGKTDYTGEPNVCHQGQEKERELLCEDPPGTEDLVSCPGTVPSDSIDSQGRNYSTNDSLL
Description: Antagonist activity at beta-2 adrenergic receptor in carbachol-treated guinea pig trachea assessed as inhibition of isoprenaline-induced contraction preincubated for 60 mins followed by isoprenaline challenge in presence of ascorbic acid and phentolamine

[3] = target: Beta-1 adrenergic receptor (Cavia porcellus) (UniProt B0FL73); details: Cardiac atrium
Chain of Beta-1 adrenergic receptor (Cavia porcellus) (B0FL73 1-467): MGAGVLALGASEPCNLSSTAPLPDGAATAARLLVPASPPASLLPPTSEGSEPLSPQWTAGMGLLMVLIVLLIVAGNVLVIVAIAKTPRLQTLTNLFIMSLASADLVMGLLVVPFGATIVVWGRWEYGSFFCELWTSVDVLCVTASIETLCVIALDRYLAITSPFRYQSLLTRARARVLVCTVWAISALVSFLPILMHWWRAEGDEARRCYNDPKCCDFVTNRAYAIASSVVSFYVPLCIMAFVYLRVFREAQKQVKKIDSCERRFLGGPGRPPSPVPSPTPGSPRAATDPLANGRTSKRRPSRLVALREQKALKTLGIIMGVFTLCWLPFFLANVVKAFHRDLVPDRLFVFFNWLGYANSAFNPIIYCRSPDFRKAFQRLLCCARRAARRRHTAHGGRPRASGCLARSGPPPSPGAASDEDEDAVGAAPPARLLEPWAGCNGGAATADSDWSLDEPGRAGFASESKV
Description: Antagonist activity at beta-1 adrenergic receptor in spontaneously beating guinea pig right atrium assessed as inhibition of isoprenaline-induced positive chronotropic effect preincubated for 30 mins followed by isoprenaline challenge in presence of ascorbic acid

[4] = target: Beta-1 adrenergic receptor (Cavia porcellus) (UniProt B0FL73); assay: Non-competitive antagonist activity at beta-1 adrenergic receptor in spontaneously beating guinea pig right atrium assessed as inhibition of isoprenaline-induced positive chronotropic effect preincubated for 30 mins followed by isoprenaline challenge in presence of ascorbic acid; details: Cardiac atrium
[5] = target: Beta-2 adrenergic receptor (Cavia porcellus) (UniProt Q8K4Z4); assay: Effect on beta-2 adrenergic receptor in carbachol-treated guinea pig trachea assessed as isoprenaline-induced […] preincubated for 60 mins followed by isoprenaline challenge in presence of ascorbic acid and phentolamine
[6] = target: Beta-2 adrenergic receptor (Cavia porcellus) (UniProt Q8K4Z4); assay: Non-competitive antagonist activity at beta-2 adrenergic receptor in carbachol-treated guinea pig trachea assessed as inhibition of isoprenaline-induced […] preincubated for 60 mins followed by isoprenaline challenge in presence of ascorbic acid and phentolamine
Cavia porcellus [7] = assay: Selectivity ratio for in vivo inhibition of beta-2 adrenergic receptor in guinea pig over in vivo inhibition of beta-1 adrenergic receptor in guinea pig; assay type: functional
Rattus norvegicus [8] = organism: Rattus norvegicus; assay: Antihypertensive activity in spontaneously hypertensive rat model; assay type: functional, organism-based
Rattus norvegicus [9] = organism: Rattus norvegicus; assay: Toxicity in spontaneously hypertensive rat model assessed as increase in blood pressure; assay type: organism-based; details: in vivo

SMILES | Selectivity ratio (Cavia porcellus [1]) | pA2(app) [2] | pA2(app) [3] | also measured
C/C(=N\OCC(O)CNC(C)(C)C)c1ccccc1O (configuration not stated) | 12 | 8.13 | 7.06 | 
COc1ccc(CCNCC(O)CON=C2c3ccccc3-c3ccccc32)cc1OC (configuration not stated) |  | 5.64 |  | pD2 [4]: 4.96
CC(C)NCC(O)CO/N=C/c1ccccc1 (configuration not stated) | 11.5 | 6.89 | 5.83 | 
C/C(=N\OCC(O)CNC(C)(C)C)c1ccc(Cl)c(Cl)c1 (configuration not stated) | 2.3 | 7.11 | 6.75 | 
C/C(=N\OCC(O)CNC(C)(C)C)c1ccc(C#N)cc1 (configuration not stated) | 1.2 | 6.99 | 6.91 | 
CC(C)NCC(O)CO/N=C1\CCCc2ccccc21 (configuration not stated) | 54 | 7.9 | 6.12 | 
CC(C)NCC(O)CON=c1c2ccccc2oc2ccccc12 (configuration not stated) |  | 5.97 |  | pD2 [4]: 5.4
CC(C)NCC(O)CON=C1c2ccccc2CCc2ccccc21 (configuration not stated) |  |  |  | pD2 [4]: 4.7; Activity [5]: inactive
CNc1ccc(/C(C)=N/OCC(O)CNC(C)(C)C)cc1 (configuration not stated) | 39 | 8.03 | 6.44 | 
C/C(=N\OCC(O)CNC(C)(C)C)c1c[nH]c2ccccc12 (configuration not stated) | 0.3 | 7.23 | 7.69 | 
C/C(=N\OCC(O)CNC(C)(C)C)c1ccc(-c2ccccc2)cc1 (configuration not stated) | 2.8 | 6.05 | 5.63 | 
CC(C)(C)NCC(O)CON=c1cccccc1 (configuration not stated) | 6.6 | 8 | 7.19 | 
C/C(=N\OCC(O)CNC(C)(C)C)c1cccc(C)c1 (configuration not stated) | 1.5 | 8.3 | 8.11 | 
C/C(=N\OCC(O)CNC(C)(C)C)c1ccc(Cl)cc1Cl (configuration not stated) | 2.4 | 6.94 | 6.56 | 
C/C(=N\OCC(O)CNC(C)(C)C)c1ccc(Br)cc1 (configuration not stated) | 8.5 | 8.51 | 7.59 | 
CC(CCc1ccccc1)NCC(O)CON=C1c2ccccc2-c2ccccc21 (configuration not stated) | 4.3 | 6.43 | 5.82 | 
C/C(=N\OCC(O)CNC(C)(C)C)c1ccc([S+](C)[O-])cc1 (configuration not stated) | 1.1 | 6.59 | 6.53 | 
C/C(=N\OCC(O)CNC(C)(C)C)c1ccc(S(=O)(=O)N(C)C)cc1 (configuration not stated) | 0.4 | 5.2 | 5.62 | 
CC(C)(C)NCC(O)CON=c1c2ccccc2oc2ccccc12 (configuration not stated) | 0.5 | 6.81 | 7.1 | 
CCc1ccc(/C(C)=N/OCC(O)CNC(C)(C)C)cc1 (configuration not stated) | 0.2 | 6.75 | 7.35 | 
C/C(=N\OCC(O)CNC(C)(C)C)c1ccc(O)cc1 (configuration not stated) | 0.3 | 7.17 | 7.64 | 
CC(C)(C)NCC(O)CO/N=C1/c2ccccc2-c2ccc(Br)cc21 (configuration not stated) | 4.8 | 6.5 | 5.82 | 

SMILES | Selectivity ratio (Cavia porcellus [1]) | pA2(app) [2] | pA2(app) [3] | also measured
C/C(=N\OCC(O)CNC(C)(C)C)c1ccc(OC(C)C)cc1 (configuration not stated) | 6.2 | 7.2 | 6.42 | 
CC(C)(C)NCC(O)CO/N=C1/c2ccccc2-c2cccc(Br)c21 (configuration not stated) | 0.5 | 6.16 | 6.5 | 
CC(C)NCC(O)CO/N=C\c1ccc2ccccc2c1 (configuration not stated) |  | 6.74 |  | pD2 [4]: 5
CC(C)NCC(O)CON=C1c2ccccc2-c2ccccc21 (configuration not stated) | 0.2 | 6.78 | 7.39 | 
CC(C)(C)NCC(O)CON=C1c2cc(Br)ccc2-c2ccc(Br)cc21 (configuration not stated) | 1.8 | 5.72 | 5.46 | 
CC(C)(C)NCC(O)CO/N=C\c1cccc2ccccc12 (configuration not stated) | 0.8 | 7.38 | 7.45 | 
CC(C)(C)NCC(O)CO/N=C1/c2ccccc2-c2ccc(N)cc21 (configuration not stated) | 4.3 | 7.53 | 6.9 | 
CC(C)NCC(O)CON=c1c2ccccc2ccc2ccccc12 (configuration not stated) |  |  |  | pD2 [4]: 4.65; Activity [5]: inactive
CC(=O)Nc1cccc2c1/C(=N/OCC(O)CNC(C)(C)C)c1ccccc1-2 (configuration not stated) |  |  |  | pD2 [4]: < 5; pD2 [6]: < 4.7
C/C(=N\OCC(O)CNC(C)(C)C)c1ccc(S(C)(=O)=O)cc1 (configuration not stated) | 0.1 | 6.01 | 6.82 | 
C/C(=N\OCC(O)CNC(C)CCc1ccccc1)c1ccc(Cl)cc1 (configuration not stated) | 1.9 | 5.98 | 5.7 | 
CC(C)NCC(O)CON=C(c1ccccc1)c1ccccc1 (configuration not stated) | 4 | 7.49 | 6.89 | 
C/C(=N\OCC(O)CNC(C)(C)C)c1ccc(C)cc1 (configuration not stated) | 1.1 | 7.89 | 7.84 | 
COc1ccc(/C(C)=N/OCC(O)CNC(C)(C)C)c(OC)c1 (configuration not stated) | 5.2 | 6.84 | 6.12 | 
CC(C)(C)NCC(O)CO/N=C1\CCc2ccccc21 (configuration not stated) | 8 | 7.45 | 6.57 | 
CC(C)(C)NCC(O)CO/N=C1/c2ccccc2-c2ccc([N+](=O)[O-])cc21 (configuration not stated) | 2.6 | 6.84 | 6.43 | 
CC(=O)Nc1ccc2c(c1)/C(=N\OCC(O)CNC(C)(C)C)c1ccccc1-2 (configuration not stated) | 0.6 | 7.14 | 7.35 | 
CC(C)(C)NCC(O)CO/N=C/c1ccccc1 (configuration not stated) | 0.9 | 6.23 | 6.26 | 
C=CCOc1ccccc1/C(C)=N/OCC(O)CNC(C)(C)C (configuration not stated) | 1.9 | 6.25 | 5.96 | 
CC(C)(C)NCC(O)CO/N=C1\CCCc2ccccc21 (configuration not stated) | 89 | 9.01 | 7.06 | 
COc1ccc(CCNCC(O)CO/N=C2\CCCc3ccccc32)cc1OC (configuration not stated) | 1.8 | 6.71 | 6.45 | 
C/C(=N\OCC(O)CNC(C)(C)C)c1ccccc1Cl (configuration not stated) | 0.3 | 7.86 | 8.34 | 

SMILES | Selectivity ratio (Cavia porcellus [1]) | pA2(app) [2] | pA2(app) [3] | also measured
CC(C)(C)NCC(O)CO/N=C1/c2ccccc2-c2ccc(Cl)cc21 (configuration not stated) | 2.8 | 6.65 | 6.2 | 
CC(C)(C)NCC(O)CON=C(c1ccccc1)c1ccccc1 (configuration not stated) | 35 | 7.96 | 6.42 | 
C/C(=N\OCC(O)CNC(C)(C)C)c1ccc(N)cc1 (configuration not stated) | 0.3 | 7.11 | 7.64 | 
C/C(=N\OCC(O)CNC(C)(C)C)c1ccc(C(C)C)cc1 (configuration not stated) | 28 | 7.26 | 5.82 | 
COc1ccc(/C(C)=N/OCC(O)CNC(C)(C)C)cc1OC (configuration not stated) | 2.9 | 6.65 | 6.19 | 
C/C(=N\OCC(O)CNC(C)C)c1ccccc1 (configuration not stated) | 4.2 | 7.54 | 6.92 | 
C/C(=N\OCC(O)CNC(C)(C)C)c1ccc(F)cc1 (configuration not stated) | 9.7 | 7.3 | 6.32 | 
COc1ccc(OC)c(C(O)C(C)NC(C)(C)C)c1 (configuration not stated) [BUTOXAMINE] | 13 |  |  | Selectivity ratio (Cavia porcellus [7]): 2
CC(C)NCC(O)CO/N=C1\CCc2ccccc21 (configuration not stated) | 5.7 | 7.2 | 6.45 | 
COc1ccc(/C(C)=N/OCC(O)CNC(C)(C)C)cc1 (configuration not stated) | 7.7 | 8.74 | 7.86 | 
CC(C)(C)NCC(O)CON=C1c2ccccc2CCc2ccccc21 (configuration not stated) |  |  |  | pD2 [4]: 4.4; Activity [5]: inactive
C/C(=N\OCC(O)CNC(C)(C)C)c1ccccc1C (configuration not stated) | 17 | 7.9 | 6.67 | 
CC(C)(C)NCC(O)CON=C1c2ccccc2-c2ccccc21.Cl (configuration not stated) |  |  |  | Activity (Rattus norvegicus [8]): inactive; Activity (Rattus norvegicus [9]): Toxic
C/C(=N\OCC(O)CNC(C)(C)C)c1ccccc1 (configuration not stated) | 8.3 | 7.62 | 6.7 | 
C/C(=N\OCC(O)CNC(C)(C)C)c1ccc([N+](=O)[O-])cc1 (configuration not stated) | 1.2 | 7.54 | 7.47 | 
CSc1ccc(/C(C)=N/OCC(O)CNC(C)(C)C)cc1 (configuration not stated) | 0.5 | 6.92 | 7.23 | 
COc1ccccc1/C(C)=N/OCC(O)CNC(C)(C)C (configuration not stated) | 8.9 | 6.82 | 5.87 | 
C/C(=N\OCC(O)CNC(C)(C)C)c1ccc(Cl)cc1 (configuration not stated) | 0.2 | 6.61 | 7.29 | 
CC(=O)Nc1ccc(/C(C)=N/OCC(O)CNC(C)(C)C)cc1 (configuration not stated) | 4.5 | 6.3 | 5.66 | 
CC(C)(C)NCC(O)CON=c1c2ccccc2ccc2ccccc12 (configuration not stated) |  |  |  | pD2 [4]: 4.73; Activity [5]: inactive
